In paper PMC8837603, “Lapcin, a potent dual topoisomerase I/II inhibitor discovered by soil metagenome guided total chemical synthesis” (Nature Communications, 2022):
pIC50: −log10 of the molar value.

Legend:
[1] = system: HCC1806 cells; assay: cells; type: cell-based, human; details: breast cancer; MTT, 48 h, 37 °C; RPMI-1640 + 10% FBS; 2,500 cells/well; absorbance 570 nm; n = 3 biologically independent
Experimental: (§1) An MTT (2-(4,5-dimethylthiazol-2-yl)−2,5-diphenyltetrazolium bromide) assay was used to determine the cytotoxicity of lapcin towards diverse cancer cell lines. Lapcin was dissolved in DMSO to make a 3.2 mg/mL working solution. For each cancer line detailed in Supplementary Table 5, cells at 80-90% confluency were counted and seeded in 96-well, flat bottom microplates and incubated at 37 °C with a 5% CO2 atmosphere. Outer wells were unused to avoid edge effects. After adhering for 24 h, the medium was sterilely aspirated and replaced with 100 µL of fresh medium containing lapcin or a control compound serially diluted at concentrations ranging from 8,000 to 0.00382 ng/mL. After 48 h (37 °C, 5% CO2), the medium was carefully removed and 110 µL of freshly prepared MTT solution (10 µL of 5 mg/mL MTT in PBS (pH 7.4) premixed with 100 µL of complete medium) was added to each well. After 3 h at 37 °C with 5% CO2, 100 µL of solubilization solution (40% DMF, 16% SDS and 2% acetic acid in H2O) was added to each well and precipitated formazan crystals were allowed to dissolve for 4 h. The absorbance of each well was then measured at 570 nm using a Tecan microplate reader.

[2] = system: HCT116 cells; assay: cells; type: cell-based, human; details: colon cancer; MTT, 48 h, 37 °C; DMEM + 10% FBS; 10,000 cells/well; absorbance 570 nm; n = 3 biologically independent
Experimental: as §1

[3] = system: HEK293 cells; assay: cells; type: cell-based, human; details: normal cell; MTT, 48 h, 37 °C; DMEM + 10% FBS; 5, 000 cells/well; absorbance 570 nm; n = 3 biologically independent
Experimental: as §1

[4] = system: MCF 7 cells; assay: cells; type: cell-based, human; details: breast cancer; MTT, 48 h, 37 °C; DMEM + 10% FBS; 8,000 cells/well; absorbance 570 nm; n = 3 biologically independent
Experimental: as §1

[5] = system: NCI-H226 cells; assay: cells; type: cell-based, human
Experimental: as §1

[6] = system: SW480 cells; assay: cells; type: cell-based, human; details: colon cancer; MTT, 48 h, 37 °C; DMEM + 10% FBS; 10,000 cells/well; absorbance 570 nm; n = 3 biologically independent
Experimental: as §1

[7] = system: human topoisomerase II alpha; assay: Topoisomerase II DNA cleavage assay; type: biochemical; details: supercoil pBR322, ATP, 30 min, 37 °C; linear DNA; two independent times
Experimental: Topoisomerase I/II cleavage assay: A commercial Human topoisomerase cleavage assay kit (Inspiralis, UK) was used in this study with a slight modification. Camptothecin (Sigma, USA) and Etoposide (Sigma, USA) were used as the positive control for topoisomerase I cleavage assay and topoisomerase II cleavage assay, respectively. The assay was performed according to the manufacture’s protocol. Briefly, 29 µL of the master mixture was prepared by adding 3 µL of 10 x assay buffer, 1 µL of 1 µg/µL supercoil pBR322, 1 µL of 30 mM ATP (only used in topoisomerase II cleavage assay), 1.5 µL serial diluted compounds (dissolved in DMSO) and H2O. Finally, 1 µL of 10 U/µL human topoisomerase I/II alpha was added to the reaction mixture. The reaction was incubated for 30 minutes at 37℃. After incubation, 3 µL of 2% (w/v) SDS and 1.5 µL of 10 mg/mL proteinase K was added. The reaction was mixed briefly and incubated for another 30 minutes at 37 ℃. The reaction was stopped by added 10 µL of H2O, 40 µL of STEB stop buffer and 40 µL of Chloroform/isoamyl alcohol (v:v, 24:1). The mixture was vortexed vigorously for 10 secs and centrifuged for 2 minutes. 20 µL of aqueous phase was loaded onto 1% (w/v) agarose gel and separated at 80 V for 2 hours in 0.5% TBE buffer. […]

[8] = system: Wheat germ Topoisomerase I; assay: DNA intercalator assay / enzyme concentration dependence, Topo I; type: biochemical; details: unlike known DNA intercalators; supercoil pBR322, 30 min, 37 °C; two independent times
From the text: DNA intercalator assay: A commercial DNA unwinding assay kit (Inspiralis, UK) was used in this study with a slight modification. Ethidium bromide was used as intercalator positive control. The assay contains two steps: the first step is used to determine the minimum concentration of compounds that will inhibit the enzyme activity; the second step is used to determine whether compounds act as intercalator or inhibitor. Ethidium bromide was used as the intercalator positive control and supercoil pBR322 was used as the substrate. The assay mixture was set up on the ice. Briefly, the master mixture was prepared by adding 3 µL of […] wheat germ topoisomerase I assay buffer, 0.5 µL of 1 µg/µL supercoil pBR322, 1.5 uL serial diluted compounds (dissolved in DMSO). H2O was added to a final volume of 29 µL. Finally, 1 µL of 2 U/µL Wheat germ Topoisomerase I was added to the reaction mixture. The reaction was incubated for 30 minutes at 37℃. The reaction was stopped by added 20 µL of H2O, and 50 µL of butanol (water-saturated). The mixture was vortexed vigorously and centrifuged for 1 minute. The lower, aqueous layer was removed and added into a new tubes containing 50 µL STEB buffer and 40 µL of Chloroform/isoamyl alcohol (v:v, 24:1). The mixture was vortexed vigorously for 10 secs and centrifuge for 2 minutes. […]

[9] = system: Topo II; assay: Enzyme concentration dependence, Topo II activity assay; type: biochemical; details: unlike known DNA intercalators; Supplementary Fig. 38
[10] = system: Escherichia coli ATCC25922; assay: MIC assay, Escherichia coli; type: cell-based; details: LB, 16 h, 37 °C, n = 2
Experimental: (§2) Lapcin was tested for antimicrobial activity against the bacteria and fungi shown in Supplementary Table 4. […] Lapcin was dissolved in sterile DMSO to make a 3.2 mg/mL working solution. Lapcin was diluted across 96-well plates using a 2-fold serial dilution method to give a concentration range of 64 to 0.06 µg/mL in 50 µL of LB broth. A single colony of each test organism was grown in either 5 mL LB (bacteria) or YPD (fungi) medium overnight at 37 °C or 30 °C, respectively. Saturated overnight cultures were diluted 5,000-fold, and then 50 µL of dilute cells were transferred into each well of the assay plates. Finally, each well contains a total volume of 100 µL.

[11] = system: Enterobacter cloacae ATCC13047; details: LB, 16 h, 37 °C, n = 2
Experimental: as §2

Molecule `CCCCCCCCCCCC(O)CC(=O)N[C@@H](C)C(=O)N[C@@H](CO)C(=O)N[C@@H](C)C(=O)Nc1ccc(-c2nc(-c3nc(C(=O)N[C@@H](CC(N)=O)C(=O)Nc4ccc(C(=O)Nc5ccc(C(=O)Nc6ccc(C(=O)O)cc6)c(O)c5OC(C)C)cc4)cs3)cs2)cc1` (stereo partly drawn) [Lapcin, 4-(4-(4-((2S)-4-amino-2-(2'-(4-((2S)-2-((2S)-3-hydroxy-2-((2S)-2-(3-hydroxytetradecanamido)propanamido)propanamido)propanamido)phenyl)-[2,4'-bithiazole]-4-carboxamido)-4-oxobutanamido)benzamido)-2-hydroxy-3-isopropoxybenzamido)benzoic acid] has a pIC50 [1] of 6.67, a pIC50 [2] of 6.03 and a pIC50 [3] of 7.32. The pIC50 [4] was 7.45, the “potency vs etoposide, NCI-H226” value ([5]; compared with etoposide) was “essentially equipotent” and the pIC50 ([5]; lung cancer, MTT, 48 h, 37 °C, RPMI-1640 + 10% FBS, 10,000 cells/well, absorbance 570 nm, n = 3 biologically independent) was 6.62. For the same molecule, the pIC50 [6] was 7.43, the “accumulation of cleavage product, Topo II” value [7] was “did not observe the accumulation of a cleavage product” and the “dependence of activity on enzyme concentration, Topo I” value [8] was “strong dependence on enzyme concentration”. For the same molecule, the “dependence of activity on enzyme concentration, Topo II” value [9] was “strong dependence on enzyme concentration”, the “MIC, Escherichia coli” value [10] was > 32 µg/mL and the “MIC, Enterobacter cloacae” value [11] was > 32 µg/mL.
